Consider 24 compounds from patent US20260232662A1, “MIR-124 INDUCER, AND PREPARATION METHOD THEREFOR AND USE THEREOF” (NANJING SYNNOCARE PHARMACEUTICAL TECHNOLOGY CO., LTD., priority 2023, published 2026).

The nature of data set [1]: In vivo pharmacokinetic evaluation in mice. The following applies: mouse; male ICR mice, po, 10 mg/kg, plasma. The protocol: The compound was administered orally (p.o.) at a dose of 10 mg/kg. The test formulation was prepared at a final concentration of 0.4 mg/mL in 5% DMSO+45% PEG400+50% aqueous solution or suspension. Male ICR mice (9 per group) were sampled at three discontinuous time points (n=3 mice/time point). Approximately 80 μL of blood was collected via orbital or cardiac puncture at 5 min, 15 min, 30 min, 1 h, 2 h, 4 h, 8 h, and 24 h post-dose. All whole blood samples were collected in EDTA K2-containing tubes. After centrifugation at 4° C. (4000 rpm, 10 min), plasma was collected and stored below −40° C. for subsequent analysis. Compound concentrations in plasma were determined by liquid chromatography-tandem mass spectrometry (LC-MS/MS), and pharmacokinetic parameters were derived from the plasma concentration-time curves.

Data set [2] relates to miR-124. Description: Induction of miR-124 expression in PBMC cells (qPCR). The class given is cell-based. As to conditions: Homo sapiens, 72 h, 0.1 μM compound, human PBMCs stimulated with PMA/ionomycin, miR-191 reference gene, read-out: miR-124 expression, Fold change vs DMSO. An outline of the steps: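 Human PBMCs (3.0*10^6 cells/well) were stimulated with PMA 10 ng/mL plus ionomycin 200 ng/mL for 48 h, then given compound at 0.1 μM final for 72 h. miR-124 was measured by RT-qPCR against miR-191 as reference gene. Expression is relative to DMSO control.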

The test system of data set [3] is DSS-induced IBD in mice. Description: Preventive and therapeutic effects on DSS-induced inflammatory bowel disease (IBD) in mice. The class given is in vivo. The following applies: further experiments, figures not given. The text has this: This study evaluated the preventive and therapeutic effects of the compounds of the present invention on dextran sulfate sodium (DSS)-induced IBD in mice. The experiment utilized female C57BL/6 mice (purchased from Beijing Vital River Laboratory Animal Technology Co., Ltd.) to establish the DSS-induced IBD model.
Female C57BL/6 mice (6-8 weeks old) were purchased from Beijing Vital River Laboratory Animal Technology Co., Ltd. Upon arrival, the mice were housed in individually ventilated cages (IVC) under specific pathogen-free (SPF) conditions, with 2-6 mice per cage. They were provided with ad libitum access to food and water and maintained at a temperature of 20-26° C. (68-79° F.), relative humidity of 40-70%, and a 12-hour light/dark cycle (lights on from 08:00 to 20:00). After a 7-day acclimatization period, experiments were initiated.
Test compounds and ABX464 vehicle: 5% DMSO+10% Solutol HS-15+85% saline, stored at 4° C.
DSS solution: 2% (w/v) DSS in autoclaved drinking water, prepared fresh before use.
The mice were randomly allocated into eight groups according to body weight: normal control group (negative control), model group (DSS group), ABX464 treatment group, test compound groups (administered with Compounds 19, 43, 59, 84, and 89 of the present invention at 40 mg/kg, p.o., q.d.)
Following a 7-day acclimation period, the model group and compound treatment groups were administered 2% DSS aqueous solution ad libitum for 7 days starting from Day 0, followed by 3 days of normal water consumption. All groups received daily oral gavage of their respective vehicles or test compounds for 10 consecutive days beginning on the trial commencement date. During the experimental period, body weight changes in mice were monitored and recorded daily, the Disease Activity Index (DAI) was scored each day with the total score calculated on the final day, and on the last experimental day all animals were humanely euthanized followed by colon collection and length measurement.
The experimental data were expressed as mean±standard error of the mean (mean±S.E.M.). Statistical analysis was performed using GraphPad Prism or SPSS software with appropriate statistical methods. A value of P<0.05 was considered statistically significant.

Turning to `FC(F)(F)Oc1ccc(Nc2nc3c(Cl)cccc3n3ccnc23)cc1` [Compound 2], in data set [1], the AUC(0-t) is 933 ng·h/mL, the Cmax was 207 ng/mL, the Tmax amounted to 4 h and the half-life was 3.45 h. The fold induction at 0.1 µM in data set [2] amounted to 16.5.

Turning to `Fc1cc(Nc2nc3c(Cl)cccc3n3ccnc23)ccc1OC(F)(F)F` [Compound 18], in data set [1], the AUC(0-t) amounted to 1840 ng·h/mL, the concentration peaked (Cmax) at 365 ng/mL, the Tmax came out at 2 h and the half-life was 3.78 h. Also, the fold induction at 0.1 µM in data set [2] worked out at 17.6.

As for `FC(F)(F)c1ccc(NC2=Nc3c(Cl)cccc3N3CCN=C23)cc1Cl` [Compound 67], in data set [1], the AUC(0-t) amounted to 2030 ng·h/mL, the Cmax amounted to 403 ng/mL, the Tmax came to 4 h and the half-life was 3.29 h. Besides, in data set [2], the fold induction at 0.1 µM is 28.8.

For the compound `FC(F)(F)c1ccc(NC2=Nc3c(Cl)cccc3N3CCN=C23)cc1` [Compound 68], in data set [1], the AUC(0-t) came to 879 ng·h/mL, the Cmax turned out to be 243 ng/mL, the Tmax was 0.5 h and the half-life is 2.17 h. Also, the fold induction at 0.1 µM in data set [2] worked out at 29.5.

With `FC1(F)Oc2ccc(NC3=Nc4c(Cl)cccc4N4CCN=C34)cc2O1` [Compound 70], in data set [1], the AUC(0-t) turned out to be 1430 ng·h/mL, the Cmax is 357 ng/mL, the Tmax stood at 0.5 h and the half-life is 2.32 h. Also, the fold induction at 0.1 µM in data set [2] amounted to 16.4.

For `Fc1cc(NC2=Nc3c(Cl)cccc3N3CCN=C23)ccc1OC(F)(F)F` [Compound 71], in data set [1], the AUC(0-t) amounted to 1370 ng·h/mL, the concentration peaked (Cmax) at 274 ng/mL, the Tmax is 4 h and the half-life was 3.41 h. In data set [2], the fold induction at 0.1 µM turned out to be 25.3.

With `FC(F)(F)Oc1ccc(Nc2nc3cccc(Cl)c3n3ccnc23)cc1` [Compound B1, 9-chloro-N-(4-(trifluoromethoxy)-phenyl)imidazolo [1,2-a]quinoxalin-4-amine], in data set [1], the AUC(0-t) came out at 3590 ng·h/mL, the Cmax is 450 ng/mL, the Tmax came to 1 h and the half-life is 2.58 h. In data set [2], the fold induction at 0.1 µM turned out to be 43.8.

Regarding `FC(F)(F)Oc1ccc(Nc2nc3ccc(Cl)cc3n3ccnc23)cc1` [Compound B4, 8-chloro-N-(4-(trifluoromethoxy)phenyl)imidazolo [1,2-a]quinoxalin-4-amine], in data set [1], the AUC(0-t) was 2850 ng·h/mL, the concentration peaked (Cmax) at 271 ng/mL, the Tmax worked out at 2 h and the half-life was 3.26 h. Further, the fold induction at 0.1 µM in data set [2] was found to be 33.1.

Consider `FC(F)(F)c1ccc(Nc2nc3cccc(Cl)c3n3ccnc23)cc1Cl` [Compound B54, 9-chloro-N-(3-chloro-4-(trifluoromethyl)phenyl)imidazolo [1,2-a]quinoxalin-4-amine], for which, in data set [1], the AUC(0-t) came out at 1330 ng·h/mL, the Cmax is 346 ng/mL, the Tmax is 0.5 h and the half-life was 1.96 h. The fold induction at 0.1 µM in data set [2] is 34.1.

On to `FC(F)(F)Oc1ccc(Nc2nc3cccc(Br)c3n3ccnc23)cc1Cl` [Compound B83, 9-bromo-N-(3-chloro-4-(trifluoromethoxy)phenyl) imidazolo[1,2-a] quinoxalin-4-amine], for which the “preventive and therapeutic effects on DSS-induced IBD (body weight, DAI, colon length) relative to ABX464” value in data set [3] was “outperformed the reference drug ABX464”.

With `FC(F)(F)Oc1ccc(NC2=Nc3cccc(Cl)c3N3CCN=C23)cc1` [Compound B118, 9-chloro-N-(4-(trifluoromethoxy)phenyl)-1,2-dihydroimidazo[1,2-a] quinoxalin-4-amine], in data set [1], the exposure AUC(0-t) worked out at 1880 ng·h/mL, the Cmax was determined as 269 ng/mL, the Tmax was found to be 2 h and the half-life was 2.47 h. In addition, the fold induction at 0.1 µM in data set [2] was determined as 28.8.

On to `FC(F)(F)c1ccc(NC2=Nc3cccc(Cl)c3N3CCN=C23)cc1` [Compound B121, 9-chloro-N-(4-(trifluoromethyl)phenyl)-1,2-dihydroimidazo[1,2-a] quinoxalin-4-amine], for which, in data set [1], the AUC(0-t) was 1950 ng·h/mL, the Cmax stood at 378 ng/mL, the Tmax turned out to be 1 h and the half-life was 2.12 h. The fold induction at 0.1 µM in data set [2] came out at 29.5.

Consider `FC(F)(F)c1ccc(NC2=Nc3cc(Cl)cc(Cl)c3N3CCN=C23)cc1` [Compound B139, 7,9-dichloro-N-(4-(trifluoromethyl)phenyl)-1,2-dihydroimidazo[1,2-a] quinoxalin-4-amine], for which, in data set [1], the AUC(0-t) was 3260 ng·h/mL, the Cmax stood at 375 ng/mL, the Tmax amounted to 2 h and the half-life is 3.36 h. In data set [2], the fold induction at 0.1 µM was found to be 40.6.

For `Fc1cc(NC2=Nc3cc(Cl)cc(Cl)c3N3CCN=C23)ccc1C(F)(F)F` [Compound B140, 7,9-dichloro-N-(3-fluoro-4-(trifluoromethyl)phenyl)-1,2-dihydroimidazo[1,2-a] quinoxalin-4-amine], in data set [2], the fold induction at 0.1 µM amounted to 38.4.

Turning to `FC(F)(F)c1ccc(NC2=Nc3cc(Cl)cc(Cl)c3N3CCN=C23)cc1Cl` [Compound B141, 7,9-dichloro-N-(3-chloro-4-(trifluoromethyl)phenyl)-1,2-dihydroimidazo[1,2-a] quinoxalin-4-amine], in data set [2], the fold induction at 0.1 µM was found to be 36.2.

`FC(F)(F)Oc1ccc(NC2=Nc3ccc(Cl)cc3N3CCN=C23)cc1` [Compound B142, 8-chloro-N-(4-(trifluoromethoxy)phenyl)-1,2-dihydroimidazo[1,2-a] quinoxalin-4-amine]: in data set [2], the fold induction at 0.1 µM was determined as 25.6.

Consider `Fc1cc(NC2=Nc3ccc(Cl)cc3N3CCN=C23)ccc1OC(F)(F)F` [Compound B143, 8-chloro-N-(3-fluoro-4-(trifluoromethoxy)phenyl)-1,2-dihydroimidazo[1,2-a] quinoxalin-4-amine], for which the fold induction at 0.1 µM in data set [2] is 28.4.

For the compound `FC(F)(F)Oc1ccc(NC2=Nc3ccc(Cl)cc3N3CCN=C23)cc1Cl` [Compound B144, 8-chloro-N-(3-chloro-4-(trifluoromethoxy)phenyl)-1,2-dihydroimidazo[1,2-a] quinoxalin-4-amine], the fold induction at 0.1 µM in data set [2] was determined as 27.8.

Turning to `FC(F)(F)c1ccc(NC2=Nc3ccc(Cl)cc3N3CCN=C23)cc1` [Compound B145, 8-chloro-N-(4-(trifluoromethyl)phenyl)-1,2-dihydroimidazo[1,2-a] quinoxalin-4-amine], the fold induction at 0.1 µM in data set [2] was 30.

`Fc1cc(NC2=Nc3ccc(Cl)cc3N3CCN=C23)ccc1C(F)(F)F` [Compound B146, 8-chloro-N-(3-Fluoro-4-(trifluoromethyl)phenyl)-1,2-dihydroimidazo[1,2-a] quinoxalin-4-amine]: in data set [2], the fold induction at 0.1 µM turned out to be 28.7.

As to `FC(F)(F)c1ccc(NC2=Nc3ccc(Cl)cc3N3CCN=C23)cc1Cl` [Compound B147, 8-chloro-N-(3-chloro-4-(trifluoromethyl)phenyl)-1,2-dihydroimidazo[1,2-a] quinoxalin-4-amine], the fold induction at 0.1 µM in data set [2] worked out at 27.9.

Turning to `FC(F)(F)Oc1ccc(NC2=Nc3cc(Cl)ccc3N3CCN=C23)cc1` [Compound B148, 7-chloro-N-(4-(trifluoromethoxy)phenyl)-1,2-dihydroimidazo[1,2-a] quinoxalin-4-amine], the fold induction at 0.1 µM in data set [2] turned out to be 29.4.

Take `Fc1cc(NC2=Nc3cc(Cl)ccc3N3CCN=C23)ccc1OC(F)(F)F` [Compound B149, 7-chloro-N-(3-fluoro-4-(trifluoromethoxy)phenyl)-1,2-dihydroimidazo[1,2-a] quinoxalin-4-amine]: the fold induction at 0.1 µM in data set [2] stood at 34.7.

Turning to `FC(F)(F)Oc1ccc(NC2=Nc3cc(Cl)ccc3N3CCN=C23)cc1Cl` [Compound B150, 7-chloro-N-(3-chloro-4-(trifluoromethoxy)phenyl)-1,2-dihydroimidazo[1,2-a] quinoxalin-4-amine], the fold induction at 0.1 µM in data set [2] came out at 26.4.
